In US20130005759A1, “SMALL MOLECULE MODIFIERS OF MICRORNA MIR-122” (North Carolina State University, priority 2010, published 2013):

System: miR-122
Assay: quantitative RT PCR of mature miR-122 in Huh7 cells
Type: cell-based, human
Conditions: Huh7, 10 μM, 48 hours
Protocol: The activity of the small molecule modifiers was analyzed by quantitative RT PCR in order to measure their direct effects on miR-122 expression levels in Huh7 cells. […] All experiments were conducted in triplicate, and the data was normalized to a DMSO control.
Each treatment was conducted in triplicate to ensure statistical validity. Cells were then incubated at 37° C. for 48 hours (DMEM, 5% CO2). The media was removed, and cells were washed with PBS buffer (2×2 mL, pH 7.4) followed by RNA isolation with the mirPremier™ microRNA Isolation Kit (Aldrich). The RNA was quantified using a Nanodrop ND-1000 spectrophotometer and 10 ng of each RNA sample was reverse transcribed using the TaqMan™ microRNA Reverse Transcription Kit (Applied Biosystems) in conjunction with either the miR-122 or miR-21 TaqMan™ RT primer (16° C., 30 min; 42° C., 30 min; 85° C., 5 min). Quantitative Real Time PCR was conducted with a TaqMan™ 2× Universal PCR Master Mix and the appropriate TaqMan™ miRNA assay (Applied Biosystems) on a BioRad MyiQ RT-PCR thermocycler (1.3 μL RT PCR product; 95° C., 10 min; followed by 40 cycles of 95° C., 15 s; 60° C. 60 s). Threshold cycles were used to determine miRNA copy numbers, and the levels of miR-122 and miR-21 were compared via determination of threshold cycle (Ct) and conversion to copy number (copy number=10[(Ct−37.4)/−3.3]).^17 The data was then normalized to the DMSO control. The samples were also analyzed by real time PCR for the presence of pri-miR-122 transcript using the previously described primers (5′ […] 3′ (SEQ ID NO:5) and 5′ […] 3′ (SEQ ID NO:6); IDT DNA) and iQ SYBR Green Supermix for the real time PCR (95° C., 3 min; followed by 40 cycles of 95° C., 15 s; 60° C. 60 s).^14

SMILES | knock-down of mature miR-122 levels relative to DMSO treated cells
O=S(=O)(c1ccc2c(c1)CCCN2)N1CCC[C@H]2CCCC[C@@H]21 [Compound 2] | 72%
O=C(Nc1ccc2ccccc2c1)c1ccc(Cl)cc1Cl [Compound 1] | 45%
